Reference: the supplement of paper PMC10307832

Tests used:
Assay in all cases: relative viability (nuclei count vs DMSO), 5 days (fraction); higher = more cells survive
[1] = compound: C1=CC=C2C(=C1)N=C(S2)C(C#N)C3=NC(=NC=C3)NCCC4=CN=CC=C4 + CS(=O)(=O)CCNCc1ccc(-c2ccc3ncnc(Nc4ccc(OCc5cccc(F)c5)c(Cl)c4)c3c2)o1 [Lapatinib] (partner 2 µM)
In short: (§1)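 A single step with final 0.05% Triton X-100, 1% formaldehyde and 1 ug/ml Hoechst fixed the cells and stained nuclei 5 days after treatment. Lung cancer cell lines in 1536-well plates had been treated by pin tool the day after seeding with one drug alone or a fixed anchor-drug dose plus five library-drug doses (not always all listed) in √10 steps, and nuclei were counted on 4× images. Relative viability is the ratio of nuclei in treated wells to nuclei in vehicle wells, taken as the median of duplicate plates.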

[2] = compound: C1=CC=C2C(=C1)N=C(S2)C(C#N)C3=NC(=NC=C3)NCCC4=CN=CC=C4 + O=C(c1cc(Cc2n[nH]c(=O)c3ccccc23)ccc1F)N1CCN(C(=O)C2CC2)CC1 [Olaparib] (partner 8 µM)
In short: as §1

CUDC-101 + Decitabine = compound: C#Cc1cccc(Nc2ncnc3cc(OC)c(OCCCCCCC(=O)NO)cc23)c1 [CUDC-101] + Nc1ncn([C@H]2C[C@H](O)[C@@H](CO)O2)c(=O)n1 [Decitabine] (partner 2 µM)
In short: as §1

Vandetanib + OSI-027 = compound: COc1cc2/c(=N/c3ccc(Br)cc3F)nc[nH]c2cc1OCC1CCN(C)CC1 [Vandetanib] + COc1cccc2cc(-c3nc([C@H]4CC[C@H](C(=O)O)CC4)n4ncnc(N)c34)[nH]c12 [OSI-027] (partner 0.5 µM)
In short: as §1

Row | Cell Line | relative viability ([1]; first compound 0.01581 µM) | relative viability ([1]; first compound 0.05 µM) | relative viability ([1]; first compound 0.1581 µM) | relative viability ([1]; first compound 0.5 µM) | relative viability ([2]; first compound 0.005 µM) | relative viability ([2]; first compound 0.01581 µM) | relative viability ([2]; first compound 0.05 µM) | relative viability ([2]; first compound 0.1581 µM) | relative viability ([2]; first compound 0.5 µM) | relative viability (CUDC-101 + Decitabine; first compound 0.01 µM) | relative viability (CUDC-101 + Decitabine; first compound 0.03162 µM) | relative viability (CUDC-101 + Decitabine; first compound 0.1 µM) | relative viability (CUDC-101 + Decitabine; first compound 0.3162 µM) | relative viability (CUDC-101 + Decitabine; first compound 1 µM) | relative viability (Vandetanib + OSI-027; first compound 0.02 µM) | relative viability (Vandetanib + OSI-027; first compound 0.06325 µM) | relative viability (Vandetanib + OSI-027; first compound 0.2 µM) | relative viability (Vandetanib + OSI-027; first compound 0.6325 µM) | relative viability (Vandetanib + OSI-027; first compound 2 µM) | relative viability ([1]; first compound 0.005 µM)
1 | NCI-H2170 | 0.258 | 0.249 | 0.285 | 0.259 | 0.592 | 0.686 | 0.621 | 0.598 | 0.458 | 0.416 | 0.514 | 0.485 | 0.444 | 0.391 | 0.641 | 0.673 | 0.727 | 0.655 | 0.811 | –
2 | NCI-H2347 | 0.909 | 0.846 | 1.04 | 0.91 | 0.607 | 0.611 | 0.627 | 0.642 | 0.525 | 0.636 | 0.585 | 0.672 | 0.591 | 0.576 | 0.518 | – | 0.386 | 0.492 | 0.361 | 1.08
3 | NCI-H2405 | 0.817 | 1.11 | 1.11 | 1.02 | 0.797 | 0.835 | 0.897 | 0.867 | 0.77 | 0.853 | 0.705 | 0.776 | 0.762 | 0.643 | 0.621 | 0.422 | 0.72 | 0.671 | 0.482 | 1.05
4 | NCI-H3122 | 1 | 1.06 | 1 | 1.03 | 0.671 | 0.655 | 0.691 | 0.788 | 0.885 | 0.402 | 0.4 | 0.51 | 0.461 | 0.485 | 0.97 | 0.924 | 0.937 | 0.931 | 1.06 | 1.01
5 | PC-3 [JPC-3] | 0.441 | 0.423 | 0.484 | 0.429 | 1.01 | – | 1.08 | 1.12 | 0.679 | 0.773 | 0.717 | 0.54 | 0.723 | 0.476 | 0.757 | 0.768 | 0.795 | 0.462 | 0.45 | 0.439
6 | PC-14 | 0.331 | 0.303 | 0.454 | 0.296 | 0.28 | 0.267 | 0.211 | 0.244 | 0.247 | 0.253 | 0.249 | 0.158 | 0.179 | 0.0808 | 0.931 | 0.576 | 0.458 | 0.145 | 0.109 | 0.305
7 | RERF-LC-KJ | 0.934 | 0.77 | 0.883 | 0.732 | 0.923 | 0.993 | 0.895 | 0.97 | 0.44 | 0.648 | 0.724 | 0.711 | 0.588 | 0.469 | 0.627 | 0.537 | 0.545 | 0.471 | 0.412 | 0.982
8 | SK-LU-1 | 0.856 | 0.934 | 1.18 | 0.832 | 0.404 | 0.454 | 0.481 | 0.513 | 0.483 | 0.671 | 0.646 | 0.677 | 0.729 | 0.609 | 0.332 | 0.199 | 0.37 | 0.348 | 0.301 | –
9 | SK-MES-1 | 0.542 | 0.408 | 0.473 | 0.445 | 0.821 | 0.76 | 0.617 | 0.798 | 0.569 | 0.349 | 0.466 | 0.332 | 0.392 | 0.261 | 0.678 | 0.559 | 0.691 | 0.618 | 0.448 | 0.455
10 | SW 1573 | 1.13 | 1.04 | 1.35 | 1.12 | 0.337 | 0.491 | 0.496 | 0.508 | 0.484 | 0.552 | 0.514 | 0.489 | 0.593 | 0.264 | 0.508 | 0.57 | 0.653 | 0.634 | 0.534 | 1.12
